Converted amounts (≈) assume the structure as drawn.
Legend:
Assay type in all cases: functional
Staphylococcus aureus [1] = assay: Bactericidal activity against Staphylococcus aureus ATCC 29213 using sub-cultures from MIC method grown subsequently on Mueller-Hinton agar plates at 37 degC for 24 hrs; conditions: ATCC 29213, 24 h
Enterococcus faecalis [2] = assay: Antimicrobial activity against Enterococcus faecalis ATCC 29212 using sub-cultures from MIC method grown subsequently on Mueller-Hinton agar plates at 37 degC for 24 hrs; conditions: ATCC 29212, 24 h
Staphylococcus aureus [3] = assay: Antibiofilm activity against Staphylococcus aureus ATCC 29213 biofilms incubated at 37 degC for 16 hrs; conditions: ATCC 29213, 16 h
[4] = tested on: Staphylococcus epidermidis; assay: Antibiofilm activity against Staphylococcus epidermidis ATCC 12228 biofilms incubated at 37 degC for 16 hrs; conditions: ATCC 12228, 16 h
Staphylococcus aureus [5] = assay: Antimicrobial activity against Staphylococcus aureus ATCC 29213 by broth microdilution method
Enterococcus faecalis [6] = assay: Antimicrobial activity against Enterococcus faecalis ATCC 29212 by broth microdilution method
[7] = tested on: Staphylococcus epidermidis; assay: Antimicrobial activity against Staphylococcus epidermidis ATCC 12228 using sub-cultures from MIC method grown subsequently on Mueller-Hinton agar plates at 37 degC for 24 hrs; conditions: ATCC 12228, 24 h
[8] = tested on: Staphylococcus epidermidis; assay: Antimicrobial activity against Staphylococcus epidermidis ATCC 12228 by broth microdilution method
Enterococcus faecalis [9] = assay: Antibiofilm activity against Enterococcus faecalis ATCC 29212 biofilms incubated at 37 degC for 16 hrs; conditions: ATCC 29212, 16 h

| SMILES | MBC (Staphylococcus aureus [1]) | MBC (Enterococcus faecalis [2]) | MIC (Staphylococcus aureus [3]) | MIC [4] | MIC (Staphylococcus aureus [5]) | MIC (Enterococcus faecalis [6]) | MBC [7] | MIC [8] | MIC (Enterococcus faecalis [9]) |
| --- | --- | --- | --- | --- | --- | --- | --- | --- | --- |
| Cn1c(C(=O)NN2C(=O)CCSC2c2ccccc2)cc(Br)c1Br (stereo not drawn) | 6.25 µg/mL (≈ 13.2 µM) | 100 µg/mL (≈ 211 µM) | 12.5 µg/mL (≈ 26.4 µM) | 12.5 µg/mL (≈ 26.4 µM) | 12.5 µg/mL (≈ 26.4 µM) | 50 µg/mL (≈ 106 µM) | 12.5 µg/mL (≈ 26.4 µM) | 6.25 µg/mL (≈ 13.2 µM) | 25 µg/mL (≈ 52.8 µM) |
| COc1ccc(C2SCCC(=O)N2NC(=O)c2cc(Br)c(Br)n2C)cc1 (stereo not drawn) | 6.25 µg/mL (≈ 12.4 µM) | 100 µg/mL (≈ 199 µM) | 6.25 µg/mL (≈ 12.4 µM) | 12.5 µg/mL (≈ 24.8 µM) | 3.12 µg/mL (≈ 6.21 µM) | 50 µg/mL (≈ 99.4 µM) | 12.5 µg/mL (≈ 24.8 µM) | 6.25 µg/mL (≈ 12.4 µM) | 25 µg/mL (≈ 49.7 µM) |
| Cn1c(C(=O)NN2C(=O)CCSC2c2ccc([N+](=O)[O-])cc2)cc(Br)c1Br (stereo not drawn) | 6.25 µg/mL (≈ 12.1 µM) | 50 µg/mL (≈ 96.5 µM) | 6.25 µg/mL (≈ 12.1 µM) | 12.5 µg/mL (≈ 24.1 µM) | 3.12 µg/mL (≈ 6.03 µM) | 50 µg/mL (≈ 96.5 µM) | 12.5 µg/mL (≈ 24.1 µM) | 6.25 µg/mL (≈ 12.1 µM) | 25 µg/mL (≈ 48.2 µM) |
| COc1ccc(C2SCCC(=O)N2NC(=O)c2cc(Br)c(Br)n2C)c(O)c1 (stereo not drawn) | 6.25 µg/mL (≈ 12 µM) | 50 µg/mL (≈ 96.3 µM) | 6.25 µg/mL (≈ 12 µM) | 12.5 µg/mL (≈ 24.1 µM) | 3.12 µg/mL (≈ 6.02 µM) | 25 µg/mL (≈ 48.1 µM) | 12.5 µg/mL (≈ 24.1 µM) | 6.25 µg/mL (≈ 12 µM) | 25 µg/mL (≈ 48.1 µM) |
| COc1ccc(C2SCCC(=O)N2NC(=O)c2cc(Br)c(Br)n2C)cc1O (stereo not drawn) | 6.25 µg/mL (≈ 12 µM) | 50 µg/mL (≈ 96.3 µM) | 6.25 µg/mL (≈ 12 µM) | 12.5 µg/mL (≈ 24.1 µM) | 3.12 µg/mL (≈ 6.02 µM) | 25 µg/mL (≈ 48.1 µM) | 12.5 µg/mL (≈ 24.1 µM) | 6.25 µg/mL (≈ 12 µM) | 25 µg/mL (≈ 48.1 µM) |
| Cn1c(C(=O)NN2C(=O)CCSC2c2cc(O)ccc2O)cc(Br)c1Br (stereo not drawn) | 12.5 µg/mL (≈ 24.7 µM) | 50 µg/mL (≈ 99 µM) | 6.25 µg/mL (≈ 12.4 µM) | 12.5 µg/mL (≈ 24.7 µM) | 3.12 µg/mL (≈ 6.19 µM) | 25 µg/mL (≈ 49.5 µM) | 12.5 µg/mL (≈ 24.7 µM) | 6.25 µg/mL (≈ 12.4 µM) | 25 µg/mL (≈ 49.5 µM) |
| Cn1c(C(=O)NN2C(=O)CCSC2c2ccc(F)cc2)cc(Br)c1Br (stereo not drawn) | 12.5 µg/mL (≈ 25.4 µM) | 50 µg/mL (≈ 102 µM) | 6.25 µg/mL (≈ 12.7 µM) | 12.5 µg/mL (≈ 25.4 µM) | 3.12 µg/mL (≈ 6.36 µM) | 25 µg/mL (≈ 50.9 µM) | 12.5 µg/mL (≈ 25.4 µM) | 6.25 µg/mL (≈ 12.7 µM) | 25 µg/mL (≈ 50.9 µM) |
| Cn1c(C(=O)NN2C(=O)CCSC2c2ccc(Cl)cc2)cc(Br)c1Br (stereo not drawn) | 12.5 µg/mL (≈ 24.6 µM) | 50 µg/mL (≈ 98.5 µM) | 6.25 µg/mL (≈ 12.3 µM) | 12.5 µg/mL (≈ 24.6 µM) | 3.12 µg/mL (≈ 6.16 µM) | 25 µg/mL (≈ 49.2 µM) | 12.5 µg/mL (≈ 24.6 µM) | 6.25 µg/mL (≈ 12.3 µM) | 25 µg/mL (≈ 49.2 µM) |
| Cn1c(C(=O)NN2C(=O)CCSC2C/C=C/c2ccccc2)cc(Br)c1Br (stereo not drawn) | 50 µg/mL (≈ 97.4 µM) | 50 µg/mL (≈ 97.4 µM) | 25 µg/mL (≈ 48.7 µM) | 25 µg/mL (≈ 48.7 µM) | 12.5 µg/mL (≈ 24.4 µM) | 25 µg/mL (≈ 48.7 µM) | 12.5 µg/mL (≈ 24.4 µM) | 6.25 µg/mL (≈ 12.2 µM) | 50 µg/mL (≈ 97.4 µM) |
| CN[C@H](CC(C)C)C(=O)N[C@H]1C(=O)N[C@@H](CC(N)=O)C(=O)N[C@H]2C(=O)N[C@H]3C(=O)N[C@H](C(=O)N[C@H](C(=O)O)c4cc(O)cc(O)c4-c4cc3ccc4O)[C@H](O)c3ccc(c(Cl)c3)Oc3cc2cc(c3O[C@@H]2O[C@H](CO)[C@@H](O)[C@H](O)[C@H]2O[C@H]2C[C@](C)(N)[C@H](O)[C@H](C)O2)Oc2ccc(cc2Cl)[C@H]1O [VANCOMYCIN] | 3.12 µg/mL (≈ 2.16 µM) | 6.25 µg/mL (≈ 4.31 µM) | 3.12 µg/mL (≈ 2.16 µM) | 3.12 µg/mL (≈ 2.16 µM) |  | 3.12 µg/mL (≈ 2.16 µM) | 3.12 µg/mL (≈ 2.16 µM) |  | 3.12 µg/mL (≈ 2.16 µM) |

— ChEMBL document CHEMBL2203132, “Synthesis and antibiofilm activity of marine natural product-based 4-thiazolidinones derivatives” (2012)
